Results taken from US12318399B2 (priority 2022, dated 2025).
Where two headings read alike, the source gives them in different places.

What was measured:
[1] = test system: patient derived endometrial cancer cells; assay: Patient-derived xenograft (PDX) mouse model, tumor volume; type: in vivo; conditions: monotherapy 30 mg/kg intraperitoneal, by day 14 and at day 21
Description: Human patient cells from endometrial cancer were injected subcutaneously into female NOD/SCID gamma mice after resuspending in 100 μL solution. […] Tumor size measured before treatment, followed by twice a week measurement. All treatment group mice were kept alive for up to 10 weeks after drug injection or until the tumor volume grows bigger than 2,500 mm^3.
Tumor size was measured along with body weight at the time of tissue collection. All tumor tissues were removed carefully from the euthanized mouse body. Tumor tissue samples were kept for histology, proteomics, genomics, and other downstream processing. All downstream processing was completed following NCI Patient-Derived Models Repository SOPs. Tumor volume graph will be plotted using GraphPad Prism 9.
The mouse studies utilized intraperitoneal dosing of various formulations of cannabis extracts comprising a known quantity of CBD.

[2] = test system: endometrial cancer organoids; assay: Patient-derived endometrial cancer organoid cell viability (CellTiter-Glo); type: cell-based, human
Description: (§1) Development of patient derived organoids: The patient derived organoids were created as follows: the patient's tissue sample was collected after surgery and bathed in Hank's Balanced Salt Solution (HBSS) (Hyclone, SH30031.02) with 1% Pencillin/Streptomycin (P/S) (Life Technologies, 15070-063) on ice. Then the sample was washed three times with Dulbecco's phosphate-buffered saline (DPBS) and 1% P/S on a shaker (70 rpm) for 15 minutes each. The tissue was then transferred into a presterilized cell-culture hood to mince it finely with a sterile blade. All minced parts were then digested in an enzyme named Accumax (Innovative Cell Technologies Inc., AM105-500) for 2.5 hours at room temperature. After 2.5-hour incubation, the whole digested tissue mince was transferred in another enzyme, TrypLE express, (Gibco, 12604-021) for another 45 minutes in a 37° C. water bath. During this time the solution was continuously agitated in every 5 minutes interval. After 45 minutes of incubation, the solutions were passed through 70 μm filter on a 50 mL falcon tube. The filter was removed, and the flowthrough with the cells was collected in 5% FBS AD+++ medium (comprising 1% TS, 2% B27, 1% N2, 25% WRN, hegf 50 ng/ml, hfgf 10-100 ng/ml, Nicotinamide 1 mM, N-acetyl cysteine 1.25 mM, Primocin 0.2%, Estrogen 2 nm, A8301 0.5 μM, and Y27632). This cell suspension was centrifuged at 1000 rpm for 5 minutes at room temperature to get the cell pellet for counting. Upon checking under hemocytometer cell number was calculated and processed for organoid culture. After checking under a microscope if we found RBC contamination in the final cell suspension, then we used Red Blood Cell Lysis Buffer (Roche Diagnostics, 11814389001) to get rid of the excess RBC. Human patient cells from endometrial cancer were grown and maintained in a humidified chamber at 37° C. with 5% CO2.
(§2) To culture patient-derived organoids, 2-3×10^3 cells were plated in a prewarmed (37° C.) 96-well plate in […] of Matrigel (5% FBS AD+++ medium) per well. Individual patient cell organoid was cultured separately in different plates. Individual patient cells were handled separately to reduce the chance of cross-contamination. After mixing cells with Matrigel, […] droplets were placed in wells and put in a 37° C. incubator with 5% CO2 for 30 minutes. Upon solidification of the Matrigel droplet with cells inside, the plate was placed inside a sterile hood and immersed the Matrigel droplet in 200 μL of organoid growth media. Cells were allowed to grow into mature organoids for 14 days. […] All treatments were done in triplicate, including vehicle-only controls (Dimethyl sulfoxide in culture medium at the highest concentration used for drug treatments).
(§3) Note: IC50 is the 50% inhibitory concentration which is conventionally used to determine drug potency with cell-based cytotoxicity tests. Similarly, all of the antioxidants were tested under the same protocol.
To assess the cell viability in organoids after treatments, CellTiter-Glo® Luminescent Assay (Promega #G7572) was used. In brief, on day 14 of organoid culture, the matrigel droplet in each well with organoid inside was immersed in 100 μL of fresh growth media and 100 μL of CellTiter-Glo® reagent following the manufacturer's guideline. Blank wells containing only media and CellTiter-Glo® reagent (no cells) were also included in each plate. Then the plates were put on a shaker at 110 RPM at room temperature for […] minutes to induce cell lysis, followed by 25 minutes at room temperature to stabilize the luminescent signal. Each step after adding the CellTiter-Glo® reagent was performed in the dark. Luminescence was measured on a FLUOstar OPTIMA plate reader (BMG Lab technologies, Offenburg, Germany). Analysis was performed by normalizing treatment values to the vehicle control and plotting them as a percentage of the vehicle control.

[3] = test system: ovarian cancer organoids; assay: Patient-derived ovarian cancer organoid cell viability; type: cell-based, human; conditions: for cell viability: chemo sensitive and chemo resistant organoids, FIGS. 11A-11D
Description: as §1
For the Ascites samples, we centrifuged the ascites fluid at 1000 rpm for 10 minutes at room temperature to get the cell suspension. The cell suspension was then treated with Red Blood Cell Lysis Buffer (Roche Diagnostics, 11814389001) to remove the RBC from the final cell suspension. Once samples were created, they were ready for testing, which included treating the organoids with cannabis extract. Additional cells were cultured in the same manner as above.
as §2, §3
To assess the cell viability in organoids after treatments, CellTiter-Glo® Luminescent Assay (Promega #G7572) was used. In brief, on day 14 of organoid culture, the matrigel droplet in each well with organoid inside was immersed in 100 μL of fresh growth media and 100 μL of CellTiter-Glo® reagent following the manufacturer's guideline. Blank wells containing only media and CellTiter-Glo® reagent (no cells) were also included in each plate. […]

[4] = cited from earlier work
[5] = test system: chemoresistant EC, which had metastasized; assay: Testing within human patients; type: in vivo

Compound | tumor volumes [1] | response of patient derived organoids ([2]; 7 or 10 μg/mL, FIGS. 4B and 4C) | eradication ([2]; IC50 of cannabis extract combined with the higher doses of carboplatin) [%] | cell viability [3] | efficacy at killing the organoids compared with native pH ([3]; pH 8) | increase of Cmax ([4]; coadministration with high fat food) | Tmax ([4]; delivery via the nasal mucosa) | maximum plasma concentration (time) ([4]; oral-mucosal or sublingual delivery) [h] | maximum plasma concentration (time) ([4]; orally delivered) [h] | efficacy in human patients [5] | reduction in organoid formation in all patients ([2]; dosing up to 50 μg/mL) [%]
C=C(C)[C@@H]1CCC(C)=C[C@H]1c1c(O)cc(CCCCC)cc1O [CBD isolate, cannabidiol] | decreased | virtually all patients respond | ~100 | dramatically reduce cell viability | virtually no change |  |  |  |  |  | 
C=C(C)[C@@H]1CCC(C)=C[C@H]1c1c(O)cc(CCCCC)cc1O [CBD, cannabidiol] |  |  |  |  |  | up to 5 fold | approximately 10 minutes | 1.6 | 2.5 to 5 | effective in reducing chemoresistant EC | 
C=C(C)[C@@H]1CCC(C)=C[C@H]1c1c(O)cc(CCCCC)c(C(=O)O)c1O [CBDA, cannabidiolic acid] | decreased |  |  | dramatically reduce cell viability |  |  |  |  |  |  | ~100
